According to US12623942B2, “Method for extracting salts and temperature- regenerated extracting composition” (ADIONICS, priority 2016, dated 2026):

Experiments:
[1] = Liquid-liquid extraction of mono-salt saline solution; conditions: 0.1M CEM + 3.52M ASM2 in CH2Cl2; initial salt 0.1 mol/L; Org./Water = 1; molar %
Description: The extracting composition is obtained by solubilizing an amount of CEM and ASM in the selected fluidizing agent, dichloromethane CH2Cl2, dichlorobenzene or dichlorotoluene or any other fluidizing agent able to well solubilize the mixture CEM/ASM in order to obtain the searched final concentrations after solubilizing CEMs and ASMs in a minimum of 3 milliliters of fluidizing agent. If the selected fluidizing agent is also an ASM compound, so the selected ASM volume is at least 3 milliliters. The given concentrations of ASM2 and ASM9 are related to the added fluidizing agent volume and the concentrations of CEM are related to the added fluidizing agent+ASM volume. The extracting organic composition is then lightly heated so as to promote the solubilization of the organic compounds by means of a heat gun (temperature around 50 to 60° C.) for a few seconds (10 to 30 seconds) until a clear solution is obtained. The composition is thus left for 24 hours at room temperature so as to make sure that the obtained formulation is stable.
These sealed formulations are then orbitally stirred at 500 revolutions/minute for two hours after adding an equivalent volume of water which was distilled twice so as to allow a water saturation of the whole formulation and a pH control at the inlet and at the outlet (pH close to 7, or at least maintained after contact with the saturation water).
3 mL of the prepared extracting organic composition are then taken from the lower phase of the decanted diphasic mixture and transferred to a vial containing 3 mL of the water containing the one or more considered chloride salts (NaCl or others), then the vial is sealed and orbitally stirred (at 500 revolutions per minute) for 2 hours at room temperature (RT), that is to say between 20 and 25° C.
A verification is made to make sure that droplets in the range of 1-2 mm are really present during these stirrings in order to be sure that an equilibrium in the distribution of the considered chloride salt (NaCl or other) is achieved between both liquid phases at the end of stirring. The aspect of the organic and aqueous phases is clear and colorless or slightly turbid.
Once the 2-hour stirring is carried out, the stirring is stopped and the whole is left for decantation for about 10 minutes, at least until both phases are completely separated, at the temperature of the assay. Then, the upper aqueous phase is taken then stirred and diluted in order to analyze its salinity by a ion chromatography (a Metrohm™ device including a cation analyzing column and an anion analyzing column suitable for the ions and for the concentration of the salts which are searched for). Likewise, the chloride salt (NaCl or other) initial aqueous solution is also analyzed by this ion chromatography to determine its cation and chloride molar relative concentration before the extraction. All the extractions and analyses were duplicated.
The considered extracting composition comprises 0.1 mol/L of CEM1 and 3.52 mol/L of ASM2 in dichloromethane CH2Cl2, which was obtained as described above. The initial concentration of the considered salt in water, whether it is LiCl, NaCl, KCl, MgCl2, CaCl2, SrCl2 or BaCl2, is 0.1 mol/L.
After carrying out these 7 specific extractions (duplicated) of salts, the amounts of extracted cations in relative molar percentage before and after extraction at room temperature and at water/extracting formulation iso-volume are indicated in table I: […]

[2] = Extraction of salts from a brine, four extraction steps; conditions: 0.4M CEM1 + 1.2M ASM9 in 12ClPh; for Salinity progression at RT, Ca / Salinity progression at RT, Cl / Salinity progression at RT, K / Salinity progression at RT, Mg / Salinity progression at RT, Na: Org./Water 3, brine 180 g/Liter
Description: (§1) The extracting composition is as follows: 0.4 Mol/L of CEM1 (cf example 1, of CAS #: 114155-16-7), completed with 1.2 Mol/L of ASM9 of formula: […]
(§2) The brine is a water having a high salinity, at 180 g/Liter (that is to say 5.6 Mol/L), composed of sodium, potassium, calcium, magnesium and chloride ions in the proportions of table II below. The saline water to be treated was contacted with a triple relative volume of this extracting composition in order to get close to the operating conditions.
(§3) It is shown in table II below the concentrations, in mMol/L of water, of each of the ions before and after each of the four extraction steps, carried out at room temperature (RT).

[3] = Complexing constant Log K in methanol at 25° C.; format: binding
Description: K is the complexing constant of a CEM and a […] cation in methanol, at 25° C., which is measured according to the standard method of isothermal calorimetric titration.

[4] = Selective extraction from a binary mixture NaCl/CaCl2; conditions: 0.1 mol/L CEM + 2.4 mol/L ASM9 in 1,2-dichlorobenzene; brine 0.05 mol/L NaCl and CaCl2 each; RT; molar %
Description: A brine containing an equimolar mixture of salts, 0.05 mol/L of NaCl and CaCl2 each, which was made as described above, was contacted with two extracting compositions, one of which according to the invention.
Each extracting composition comprises 0.1 mol/L of CEM
[drawing 53] and 2.4 mol/L of ASM9 in 1,2-dichlorobenzene.
A brine containing a mixture of NaCl and CaCl2 is made as described above to obtain the following initial saline concentrations in a mixture: 0.2 Mol/L of NaCl and 0.03 Mol/L of CaCl2. The extracting resin, is composed of 0.1 Mol/L of CEM2, 3.52 Mol/L of ASM2 and a complement of liquid ASM1, which is also used as a fluidizing agent.

[5] = Extraction of salts from a brine, four extraction steps, total salinity; conditions: 0.4M CEM1 + 1.2M ASM9 in 12ClPh; for Salinity progression at RT, Total: Org./Water 3, brine 180 g/Liter
Description: as §1, §2, §3

[6] = after Extract 4, expressed in g/Liter

CCN(CC)C(=O)COc1c2cc(C(C)(C)C)cc1Cc1cc(C(C)(C)C)cc(c1OCC(=O)N(CC)CC)Cc1cc(C(C)(C)C)cc(c1OCC(=O)N(CC)CC)Cc1cc(C(C)(C)C)cc(c1OCC(=O)N(CC)CC)C2 [CEM1, 4-tert-butyl-Calix[4]arene tetrakis(N,N-diethylacetamide)]
Extraction rate at room temperature (RT), BaCl2 [1]: 46.1%
Extraction rate at room temperature (RT), CaCl2 [1]: 59.4%
Extraction rate at room temperature (RT), KCl [1]: 75.8%
Extraction rate at room temperature (RT), LiCl [1]: 73.7%
Extraction rate at room temperature (RT), MgCl2 [1]: 5.4%
Extraction rate at room temperature (RT), NaCl [1]: 85.8%
Extraction rate at room temperature (RT), SrCl2 [1]: 64.0%
Salinity progression at RT, Ca ([2]; after Extract 1): 495 mmol/L
Salinity progression at RT, Cl ([2]; after Extract 1): 2703 mmol/L
Salinity progression at RT, K ([2]; after Extract 1): 22.5 mmol/L
Salinity progression at RT, Mg ([2]; after Extract 1): 83.4 mmol/L
Salinity progression at RT, Na ([2]; after Extract 1): 1162 mmol/L
Salinity progression at RT, Ca ([2]; after Extract 2): 492 mmol/L
Salinity progression at RT, Cl ([2]; after Extract 2): 2292 mmol/L
Salinity progression at RT, K ([2]; after Extract 2): 23.4 mmol/L
Salinity progression at RT, Mg ([2]; after Extract 2): 86.4 mmol/L
Salinity progression at RT, Na ([2]; after Extract 2): 429 mmol/L
Salinity progression at RT, Ca ([2]; after Extract 3): 360 mmol/L
Salinity progression at RT, Cl ([2]; after Extract 3): 1083 mmol/L
Salinity progression at RT, K ([2]; after Extract 3): 13.9 mmol/L
Salinity progression at RT, Mg ([2]; after Extract 3): 87.6 mmol/L
Salinity progression at RT, Na ([2]; after Extract 3): 8.54 mmol/L
Salinity progression at RT, Ca ([2]; after Extract 4): 114 mmol/L
Salinity progression at RT, Cl ([2]; after Extract 4): 469 mmol/L
Salinity progression at RT, K ([2]; after Extract 4): 3.65 mmol/L
Salinity progression at RT, Mg ([2]; after Extract 4): 94.2 mmol/L
Salinity progression at RT, Na ([2]; after Extract 4): 3.70 mmol/L
Equivalent4, Ca [2, 6]: 4.57 g/L
Equivalent4, Cl [2, 6]: 16.62 g/L
Equivalent4, K [2, 6]: 0.14 g/L
Equivalent4, Mg [2, 6]: 2.29 g/L
Equivalent4, Na [2, 6]: 0.09 g/L
Log K(Ba^++, MeOH, 25° C.) [3]: 7.2
Log K(Ca^++, MeOH, 25° C.) [3]: > 9.0
Log K(Cs^+, MeOH, 25° C.) [3]: 2.5
Log K(K^+, MeOH, 25° C.) [3]: 5.8
Log K(Li^+, MeOH, 25° C.) [3]: 4.0
Log K(Mg^++, MeOH, 25° C.) [3]: < 1.2
Log K(Na^+, MeOH, 25° C.) [3]: 7.9
Log K(Rb^+, MeOH, 25° C.) [3]: 3.8
Log K(Sr^++, MeOH, 25° C.) [3]: > 9.0
% E Ca^++ [4]: 10.0%
% E Na^+ [4]: 88.0%
Salinity progression at RT, Total ([5]; after Extract 1): 4466 mmol/L
Salinity progression at RT, Total ([5]; after Extract 2): 3322 mmol/L
Salinity progression at RT, Total ([5]; after Extract 3): 1553 mmol/L
Salinity progression at RT, Total ([5]; after Extract 4): 685 mmol/L
Equivalent4, Total [5, 6]: 23.70 g/L
